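How tested: cells in 96-well plates exposed to compound for 48 hours at five concentrations. At the TGI there is no net growth.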

From PubChem BioAssay (NCI) come the findings set out here.

Common to all, as to assay: NCI tumour cell line growth inhibition, 48 h
Test [1] deals with COLO 205 colon.
Test [2] deals with U251 CNS.
The test system of test [3] is EKVX NSCLC.
Test [4] relates to K-562 leukemia.
The subject of test [5] is TK-10 renal.
Test [6] relates to BT-549 breast.
In test [7] the test system is NCI-H226 lung.
For test [8], the system named is SK-MEL-5 melanoma.
Test [9] relates to UACC-62 melanoma.
Test [10] deals with HOP-92 NSCLC.
In test [11] the test system is CAKI-1 renal.
For test [12], the system named is OVCAR-5 ovarian.
Test [13] deals with HOP-62 NSCLC.
The test system of test [14] is 786-0 renal.
Test [15] relates to DU-145 prostate.
The test system of test [16] is HCT-116 colon.
Test [17] concerns IGROV1 ovarian.
The test system of test [18] is A549 NSCLC.
Test [19] has as its system M14 melanoma.
For test [20], the system named is OVCAR-4 ovarian.

On to `COc1ccc(Nc2nc3ccc(C(F)(F)F)cc3nc2C(=O)O)cc1`, for which the TGI in test [1] is greater than 100 µM; in [2] it was greater than 100 µM; in [3] it was greater than 100 µM; in [4] it was greater than 100 µM; in test [5] it was greater than 100 µM; in test [6], 49.4 µM. In addition, the TGI in test [7] is greater than 100 µM; in test [8], greater than 100 µM; in [9] it was 67.3 µM; in [10] it was 92 µM; in [11], greater than 100 µM; in test [12], 84.9 µM. The TGI in test [13] was greater than 100 µM; in [14], greater than 100 µM; in test [15], greater than 100 µM; in test [16], greater than 100 µM; in test [17], 39.5 µM; in test [18], greater than 100 µM. Besides, the TGI in test [19] and in test [20] was greater than 100 µM in each case.

Take `Cn1ccoc1=Nc1ccc(Cl)c(Cl)c1`: the TGI in [1], in [2], in test [3], in test [4], in [5] and in test [6] was greater than 10 µM throughout. In addition, the TGI in test [7], in test [8], in [9], in [10], in test [11] and in [12] was greater than 10 µM in each case. Also, the TGI in test [13], in [14], in test [15], in [16], in test [17] and in [18] was greater than 10 µM each time. Also, the TGI in test [19] and in [20] was greater than 10 µM in each case.

Regarding `Nc1nnc2oc3ccc4ccccc4c3cc1-2`, the TGI in [1] is 56.8 µM; in test [2] it was greater than 100 µM; in test [3] it was greater than 100 µM; in test [4], greater than 100 µM; in test [5], greater than 100 µM; in [6] it was greater than 100 µM. Further, the TGI in [7] is 80.7 µM; in test [8] it was greater than 100 µM; in [9], greater than 100 µM; in [10], greater than 100 µM; in test [11] it was greater than 100 µM; in [12], greater than 100 µM. The TGI in [13], in test [14], in test [15], in test [16], in test [17] and in [18] was greater than 100 µM in each case. The TGI in test [19] and in test [20] was greater than 100 µM throughout.

On to `CC(C)(C)OC(=O)NC(CS(=O)(=O)O)C(=O)O` (stereo not given), for which the TGI in test [1], in [2], in test [3], in [4], in test [5] and in test [6] was greater than 100 µM in each case. Also, the TGI in test [7], in test [8], in [9], in test [10], in test [11] and in test [12] was greater than 100 µM in each case. Further, the TGI in test [13], in [14], in [15], in [16], in test [17] and in test [18] was greater than 100 µM throughout. The TGI in test [19] and in test [20] was greater than 100 µM each time.

Turning to `O=C1CSC(c2ccccc2O)N1c1nc2cc3sc(N4C(=O)CSC4c4ccccc4O)nc3cc2s1` (stereo not given), the TGI in test [1], in test [2], in test [3], in test [4], in test [5] and in test [6] was greater than 100 µM each time. Moreover, the TGI is greater than 88.1 µM in [7]; greater than 100 µM in test [8]; greater than 100 µM in test [9]; greater than 100 µM in [10]; greater than 100 µM in test [11]; greater than 100 µM in [12]. Also, the TGI in test [13], in test [14], in test [15], in [16], in test [17] and in test [18] was greater than 100 µM in each case. In addition, the TGI in [19] and in test [20] was greater than 100 µM in each case.

As to `O=c1c2ccccc2nc2sc(/N=C/C=C/c3ccccc3)nn12`, the TGI in test [1], in [2], in [3], in [4], in [5] and in test [6] was greater than 100 µM throughout. Besides, the TGI in [7], in [8], in [9], in test [10], in [11] and in test [12] was greater than 100 µM in each case. Moreover, the TGI in test [13], in test [14], in [15], in test [16], in test [17] and in test [18] was greater than 100 µM throughout. The TGI in [19] and in test [20] was greater than 100 µM throughout.

On to `O=c1c2cc(S(=O)(=O)O)ccc2nc(COc2ccc(Oc3ccc(Cl)cc3Cl)cc2)n1C(=S)Nc1ccc(Cl)cc1`, for which the TGI in [1] was 34.1 µM; in test [2], 35.5 µM; in [3], 56.6 µM; in [4], 30.8 µM; in test [5], 40.4 µM; in [6] it was 45.2 µM. Moreover, the TGI in [7] was 42.4 µM; in test [8] it was 33.1 µM; in [9] it was 31 µM; in test [10], 43.3 µM; in test [11], greater than 100 µM; in [12], 40.7 µM. The TGI in test [13] is 44.4 µM; in test [14], 40.4 µM; in [15] it was 87 µM; in [16] it was 53.3 µM; in test [17], greater than 100 µM; in test [18] it was 53.1 µM. For the same compound, the values for the TGI in test [19] and in test [20] were 40.9 µM and 59.3 µM, respectively.
